The results in this text go back to PubChem BioAssay (NCI).

Common to all, as to assay: NCI-60 cell line screen, 48 h
For experiment [1], the system named is A498 renal.
Experiment [2] has as its system DU-145 prostate.
Experiment [3] deals with EKVX NSCLC.
In experiment [4] the test system is HCC-2998 colon.
The subject of experiment [5] is HCT-15 colon.
In experiment [6] the test system is MALME-3M melanoma.
The test system of experiment [7] is MCF7 breast.
Experiment [8] concerns SK-MEL-2 melanoma.
Experiment [9] has as its system SNB-19 CNS.
In experiment [10] the test system is UACC-257 melanoma.

Where “and” joins values, the source holds several entries; their conditions need not be identical. Identical values can stand only once.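 Growth conditions: 96-well plates. Treatment: test compound, 48 hours, 5 concentrations. Analysis: linear interpolation between bracketing concentrations; unreached endpoints set to highest concentration. GI50 = concentration required for 50% inhibition of growth. TGI denotes the concentration required for complete inhibition of growth.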

As for `CCCCN(CCCC)CC(C)(C)C(O)c1ccc(OC)c2ccccc12` (stereo not given), the GI50 in experiment [1] is 4.27 µM; in [2], 10.2 µM; in experiment [3], 4.24 µM; in experiment [4] it was 3.69 µM; in experiment [5], 3.88 µM; in experiment [6], 3.02 µM. Besides, the GI50 in experiment [7] was 3.55 µM; in experiment [8] it was 5.11 µM; in experiment [9] it was 10.6 µM; in experiment [10] it was 6.31 µM. In addition, the TGI in experiment [1] is 22.9 µM; in experiment [2] it was 52.3 µM; in [3], 22.9 µM; in experiment [4], 12 µM; in [5], 16.5 µM; in [6], 16.6 µM. The TGI was found to be 15.4 µM in [7], 17.7 µM in experiment [8], 28.6 µM in experiment [9] and 23.8 µM in experiment [10].

With `Cc1ccc2[nH]c(C(=O)NN3C(=O)CSC34CCCC(C)C4)c(-c3ccccc3)c2c1` (stereo not given), the GI50 in experiment [1] is 17.5 µM; in [2], 18.7 µM; in [3], 24.2 µM; in [4] it was 14.5 µM; in experiment [5] it was 18.3 µM; in [6], 18.3 µM. The GI50 in experiment [7] is 15.4 µM; in experiment [8], 9.12 µM; in [9], 18.6 µM; in experiment [10] it was 19.2 µM. Moreover, the TGI in experiment [1] was found to be 36.3 µM; in [2], 42.4 µM; in experiment [3], 58.8 µM; in experiment [4] it was 28.8 µM; in experiment [5], 37.2 µM; in experiment [6], 34.7 µM. The TGI turned out to be 38.5 µM in [7], 23.1 µM in experiment [8], 36.6 µM in experiment [9] and 35 µM in [10].

On to `CCN(CC)CCCCCOc1cc(O)c2c(=O)cc(-c3ccccc3)oc2c1`, for which the GI50 in [1] was 2.46 µM; in [2], 4.61 µM; in experiment [3] it was 6.93 µM; in experiment [4], 0.386 µM; in experiment [5] it was 1.58 µM; in [6] it was 1.86 µM. For the same molecule, the GI50 is 1.66 µM in [7], 3.23 µM in experiment [8], 6.76 µM in experiment [9] and 1.81 µM in experiment [10]. Also, the TGI in [1] worked out at 9.48 µM; in experiment [2], 17.4 µM; in [3], 23.6 µM; in experiment [4], 2.35 µM; in experiment [5], 3.76 µM; in [6], 4.2 µM. The TGI in experiment [7] was 3.83 µM; in experiment [8], 11.4 µM; in experiment [9], 21.3 µM; in experiment [10] it was 3.55 µM.

Take `CC1CCC2C(C)C3C(CC4C5CC=C6CC(OC7OC(CO)C(O)C(OC8OC(CO)C(O)C(O)C8O)C7OC7OC(C)C(O)C(O)C7O)CCC6(C)C5CCC43C)N2C1` (stereo not given): the GI50 in experiment [1], in experiment [2], in experiment [3], in [4], in experiment [5] and in experiment [6] was over 2.5 µg/mL each time. Moreover, the GI50 in experiment [7], in [8], in [9] and in experiment [10] was over 2.5 µg/mL in each case. The TGI in experiment [1] is 31.7 µM and > 2.5 µg/mL; in [2], 38.7 µM and > 2.5 µg/mL; in [3], 21.9 µM and > 2.5 µg/mL; in [4], 35 µM and > 2.5 µg/mL; in experiment [5], 33 µM and > 2.5 µg/mL; in [6], 65.3 µM and > 2.5 µg/mL. For the same molecule, the TGI is 29.1 µM and > 2.5 µg/mL in experiment [7]; 34.8 µM and > 2.5 µg/mL in experiment [8]; 23.8 µM and > 2.5 µg/mL in [9]; 33.2 µM and > 2.5 µg/mL in [10].

Regarding `COc1ccc(C2C(c3ccccc3)C(=O)N2c2cc(OC)c(OC)c(OC)c2)cc1I` (stereo not given), the GI50 in [1] is 0.241 µM; in [2], 0.332 µM; in experiment [3] it was 0.658 µM; in experiment [4], 0.567 µM; in experiment [5] it was 0.339 µM; in experiment [6], over 100 µM. In addition, the GI50 in experiment [7] is 0.336 µM; in experiment [8], 0.572 µM; in [9] it was 0.59 µM; in [10] it was over 100 µM. Besides, the TGI in experiment [1] was 0.777 µM; in [2], 75.4 µM; in [3], over 100 µM; in experiment [4], over 100 µM; in experiment [5], over 100 µM; in [6] it was over 100 µM. Also, the TGI in [7], in experiment [8], in experiment [9] and in experiment [10] was over 100 µM throughout.

For the molecule `O=C(O)c1ccc(-c2ccc(C(=O)O)cc2I)c(I)c1`, the GI50 in experiment [1], in [2], in experiment [3], in experiment [4], in experiment [5] and in experiment [6] was over 100 µM throughout. Also, the GI50 in experiment [7], in experiment [8], in [9] and in experiment [10] was over 100 µM throughout. Further, the TGI in experiment [1], in [2], in [3], in experiment [4], in [5] and in [6] was over 100 µM each time. In addition, the TGI in experiment [7], in experiment [8], in experiment [9] and in experiment [10] was over 100 µM each time.

Consider `O=C(NCCN1CCOCC1)Nc1ccc(-c2cc3c(Nc4ccc(Oc5cccc(C(F)(F)F)c5)c(Cl)c4)ncnc3s2)cc1`, for which the GI50 in experiment [1] was 2.04 µM; in experiment [2] it was 2.93 µM; in experiment [3] it was 2.27 µM; in experiment [4], 1.19 µM; in [5], 0.95 µM; in experiment [6], 0.832 µM. The GI50 in experiment [7] is 1.11 µM; in experiment [8], 1.25 µM; in [9], 2.41 µM; in experiment [10], 0.927 µM. The TGI turned out to be 7.79 µM in experiment [1]; 9.26 µM in [2]; 8.61 µM in experiment [3]; 3.77 µM in experiment [4]; 1.92 µM in experiment [5]; 1.57 µM in [6]. The TGI is 3.27 µM in experiment [7], 2.98 µM in experiment [8], 8.52 µM in [9] and 1.84 µM in [10].

Turning to `CCn1c(-c2nonc2N)nc2c(C#CC(C)(C)O)nc(O[C@@H](CN)c3ccccc3)cc21`, the GI50 is 0.00553 µM in [1]; 0.112 µM in experiment [2]; 0.982 µM in experiment [3]; 0.0478 µM in experiment [4]; 3.1 µM in experiment [5]; 0.447 µM in [6]. Moreover, the GI50 in experiment [7] is 0.055 µM; in [8], 0.188 µM; in [9] it was 0.236 µM; in experiment [10], 0.611 µM. In addition, the TGI in experiment [1] worked out at 0.171 µM; in experiment [2], 4.64 µM; in experiment [3], 9.38 µM; in experiment [4] it was 0.858 µM; in experiment [5], 24.1 µM; in experiment [6], 1.47 µM. Further, the TGI in experiment [7] is 2.58 µM; in experiment [8], 0.737 µM; in [9], 3.24 µM; in [10], 1.54 µM.

As to `COc1ccc2c(c1OC)-c1c(c3ccc([N+](=O)[O-])cc3c(=O)n1CCCN=[N+]=[N-])C2=O`, the GI50 in [1] is 82.3 µM; in [2], 4.88 µM; in experiment [3], over 100 µM; in [4], 79.9 µM; in experiment [5] it was over 100 µM; in experiment [6], over 100 µM. In addition, the GI50 was 11.2 µM in experiment [7], over 100 µM in [8], 3.62 µM in experiment [9] and 17.2 µM in experiment [10]. Moreover, the TGI in experiment [1], in experiment [2], in [3], in experiment [4], in [5] and in experiment [6] was over 100 µM throughout. The TGI in [7], in [8], in [9] and in experiment [10] was over 100 µM throughout.

Turning to `CCCC[P+](c1ccccc1)(c1ccccc1)c1ccccc1`, the GI50 in experiment [1] is 3.46 µM; in experiment [2] it was 4.41 µM; in experiment [3], 1 µM; in experiment [4], 1.42 µM; in experiment [5], over 100 µM; in [6], 4.29 µM. In addition, the GI50 in experiment [7] was 1.33 µM; in [8], 3.42 µM; in experiment [9], 3.6 µM; in [10], 0.61 µM. Moreover, the TGI in experiment [1] is 29.5 µM; in [2], over 100 µM; in experiment [3] it was over 100 µM; in experiment [4] it was over 100 µM; in experiment [5], over 100 µM; in [6] it was over 100 µM. The TGI in [7] is over 100 µM; in [8] it was 19.6 µM; in experiment [9], over 100 µM; in experiment [10], 7.6 µM.

Consider `O=C(NCCCNC(=O)OCc1ccc2c(Br)cc(Br)c(O)c2n1)OCc1ccc2c(Br)cc(Br)c(O)c2n1`, for which the GI50 in [1], in [2], in experiment [3], in experiment [4], in experiment [5] and in experiment [6] was over 100 µM each time. The GI50 in experiment [7], in [8], in [9] and in experiment [10] was over 100 µM in each case. Moreover, the TGI in [1], in experiment [2], in [3], in experiment [4], in [5] and in [6] was over 100 µM throughout. Also, the TGI in [7], in [8], in experiment [9] and in [10] was over 100 µM in each case.

In the case of `O=C(O)C(Br)C(Br)c1ccccc1[N+](=O)[O-]` (stereo not given), the TGI in experiment [1], in experiment [2], in experiment [3], in experiment [4], in experiment [5] and in experiment [6] was over 100 µM each time. Also, the TGI in [7], in experiment [8], in experiment [9] and in experiment [10] was over 100 µM throughout.

As to `CCOC(=O)CNC(=O)CCCn1c(=O)c2c3ccccc3n(C)c2n2nnc(-c3ccccc3)c12`, the GI50 is 7.29 µM in experiment [1]; 32 µM in experiment [2]; 20.5 µM in experiment [3]; over 50 µM in [4]; over 50 µM in experiment [5]; over 50 µM in experiment [6]. Besides, the GI50 in experiment [7] was 31.3 µM; in experiment [8] it was 9.46 µM; in experiment [9], 5.83 µM; in [10], over 50 µM. The TGI is 24.6 µM in experiment [1]; over 50 µM in experiment [2]; over 50 µM in [3]; over 50 µM in experiment [4]; over 50 µM in experiment [5]; over 50 µM in [6]. Further, the TGI is over 50 µM in experiment [7], 29.1 µM in experiment [8], 22.7 µM in experiment [9] and over 50 µM in experiment [10].

As for `O=C(O)c1ccc(S(=O)(=O)N=Nc2c(O)[nH]c3ccccc23)cc1`, the TGI in [1], in experiment [2], in experiment [3], in experiment [4], in experiment [5] and in experiment [6] was over 100 µM in each case. The TGI in [7], in [8], in experiment [9] and in [10] was over 100 µM each time.

In the case of `C=CC[Se]C(=O)Cc1c(C)n(C(=O)c2ccc(Cl)cc2)c2ccc(OC)cc12`, the GI50 in [1] was 1.52 µM; in experiment [2] it was 1.9 µM; in experiment [3] it was 1.73 µM; in [4], 1.64 µM; in [5] it was 1.84 µM; in experiment [6], 1.71 µM. The GI50 is 1.81 µM in experiment [7], 1.94 µM in [8], 0.657 µM in experiment [9] and 2.02 µM in experiment [10]. Also, the TGI in experiment [1] turned out to be 4.25 µM; in [2], 3.75 µM; in experiment [3], 3.55 µM; in experiment [4], 3.2 µM; in experiment [5] it was 3.87 µM; in experiment [6], 3.45 µM. In addition, the TGI in [7] is 4.17 µM; in experiment [8] it was 4.14 µM; in [9] it was 1.99 µM; in experiment [10], 4.64 µM.
